{"source": "patent US4461724A", "about": "“Peptide compounds, a process for manufacturing them, pharmaceutical compositions containing them, and methods for treating ulcer and thrombus with them” (Nippon Zoki Pharmaceutical Co., Ltd., priority 1981, dated 1984)", "key": {"[1]": {"system": "thrombus on silk thread in extracorporeal shunt of rats", "test": "Antithrombotic effect (II): extracorporeal shunt with silk thread, thrombus wet weight", "format": "in vivo, Wister strain male rats", "conditions": "20 minute circulation; for Thrombosis wet weight: mean ± S.E., control 38.1 ± 3.4", "protocol": "The present pharmacological test was conducted according to the method by T. Umetsu et al. [Thrombosis and Haemostasis, 39, 74-83 (1978)]. Groups each consisting of 10 Wister strain male rats were anesthetized by intraperitoneal administration of 50 mg/kg of sodium pentobarbital. An extracorporeal shunt prepared by connecting cannula polyethylene tubes to both ends of a polyethylene tube into which a silk thread had been inserted was filled with heparin, the both ends were then inserted into the dissected and exposed left jugular vein and right carotid artery. Thereafter, blood circulation was started. The drug to be tested was intravenously administered one minute before the start of blood circulation. Aspirin was orally administered as a comparative drug. After 20 minute blood circulation, the wet weight of the thrombus coated to the silk thread was weighed, and the inhibition rate was calculated."}, "[2]": {"system": "aspirin-induced ulcer in rats", "test": "(B) Aspirin-induced ulcer inhibiting effect", "format": "in vivo", "conditions": "drug once before oral aspirin 200 mg/kg", "protocol": "4. […] According to the method by Brodie et al. [Brodie, D. A. & Chase, B. J., Gastroenterology, 53, 604 (1967)], the drug to be tested was orally administered to rats once before the oral administration of 200 mg/kg of aspirin."}, "[3]": {"system": "restraint and water immersion stress ulcer in rats", "test": "(A) Restraint and water immersion stress ulcer inhibiting effect", "format": "in vivo", "conditions": "stress 25° C., 4 hours, drug once before stress", "protocol": "(§1) The peptide compound of this invention (Compound 25) and cimetidine and atropine both employed as the comparative drugs were intravenously administered.\nAccording to the method by Takagi et al. [Takagi, K. et al., Chem. Pharm. Bull., 12, 465 (1964)], the effect on the ulcer in rats induced by stress due to restraint and immersing in water in wire cages (25° C., 4 hours) was examined. The drugs to be tested were administered once before loading the stress."}, "[4]": {"system": "cysteamine-induced duodenal ulcer in rats", "test": "(E) Cysteamine-induced duodenal ulcer inhibiting effect", "format": "in vivo", "conditions": "drug once before cysteamine hydrochloride 400 mg/kg", "protocol": "as §1\nAccording to the method by Robert at al. [Robert, H. et al., Digestion, 11, 199 (1974)], 400 mg/kg of cysteamine hydrochloride was administered to rats to induce duodenal ulcer. The drug to be tested was administered once before the administration of the cysteamine."}, "[5]": {"system": "histamine-induced ulcer in rats", "test": "(C) Histamine-induced ulcer inhibiting effect (ID50)", "format": "in vivo", "conditions": "drug once before histamine 300 mg/kg", "protocol": "4. […] According to the method by Bucher et al. [ Bucher, F. et al., Beitr. Path. Anat., 81, 391 (1928)], the drug to be tested was intraperitoneally administered to rats once before the oral administration of 300 mg/kg of histamine."}, "[6]": {"system": "cortisone-induced ulcer in rats", "test": "(D) Cortisone-induced ulcer inhibiting effect", "format": "in vivo", "conditions": "starved rats, cortisone acetate 20 mg/kg s.c. and drug once a day for 4 days", "protocol": "as §1\nAccording to the method by Robert et al. [Robert, A & Nezamis, J. E., Proc. Soc. Exptl. Biol. Med., 99, 443 (1958)], rats were starved, and 20 mg/kg of cortisone acetate was subcutaneously administered once a day for 4 days to induce ulcer. The drug to be tested was also administered simultaneously with the cortisone acetate once a day for 4 days."}, "[7]": {"system": "histamine-induced ulcer in rats", "test": "Histamine-induced ulcer inhibiting effect (Table 1)", "format": "in vivo, Wister strain male rats", "conditions": "histamine dihydrochloride 300 mg/kg i.p., 4 hours; for Ulcer coefficient (total surface area of ulcer lesion): mean ± S.E., control 28.4 ± 3.2", "protocol": "Groups each consisting of 10 Wister strain male rats (120-130 g) were starved for 24 hours, and the drug to be tested were intravenously administered (i.v.). Immediately thereafter, according to the method by Bucher et al. [Bucher, F. et al., Beitr. Path. Anat. 81, 391 (1928)], 300 mg/kg of histamine dihydrochloride was administered intraperitoneally (i.p.). Four hours later, each animal was decapitated to bleed, and the stomach was removed. 6 ml of physiological saline was infused into the removed stomach, which was then dipped in 10% formalin for 10 minutes. Then, the stomach was incised along the greater curvature. The ulcer appeared on the stomach mucous membrane was observed on a stereoscopic microscope to measure the surface area of the ulcer lesion, and the total area was designated as the ulcer coefficient."}, "[8]": {"system": "acetic acid-induced ulcer in rats", "test": "Acetic acid-induced (chronic) ulcer inhibiting effect", "format": "in vivo", "conditions": "once a day for 10 days", "protocol": "The effect of the peptide compound of this invention on chronic ulcer was examined according to the method by Takagi et al. [Takagi, K. et al., Japan J. Pharmacol., 19, 418 (1970)]. That is, 0.025 ml of 30% acetic acid was injected to the stomach serous membrane in rats, and for 10 days thereafter, the peptide compound of this invention (Compound 25) was intravenously administered once a day. Gefarnate and secretin both employed as the comparative drugs were similarly intramuscularly administered (i.m.)."}, "[9]": {"system": "Collagen Induced Hemagglutination", "test": "Antithrombotic effect (I): collagen induced hemagglutination in plasma of dosed rats", "format": "in vivo, Wister strain male rats", "conditions": "collagen as coagulant; for Transmittance: mean ± S.E., control 52.5 ± 7.1", "protocol": "(§2) Groups each consisting of 10 Wister strain male rats (120-160 g) were administered with the drug to be tested through the tail vein, and 5 minutes later, blood was taken under etherized conditions at a ratio to 3.8% aqueous sodium citrate solution of 1/10. This was centrifugally separated into platelet rich plasma (PRP) and platelet poor plasma (PPP). Using ADP or collagen as the coagulant, the reaction was effected at 37° C. The transmittance of the plasma with the coagulant and drug to be tested was measured using PRP and PPP as the standards, compared with the control, and the percent inhibition was calculated. As the comparative drug, ticlopidine was orally administered."}, "[10]": {"system": "pylorus ligation ulcer in rats", "test": "Pylorus ligation ulcer inhibiting effect", "format": "in vivo, Wister strain male rats", "conditions": "1 mg/kg i.p., 18 hours after pylorus ligation, mean ± S.E., control 4.5 ± 0.3", "protocol": "Groups each consisting of 10 Wister strain male rats were starved for 24 hours, and the pylorus was ligatured under etherized conditions. The peptide compound of this invention (Compound 25) was intraperitoneally administered. Eighteen hours later, the stomach was removed and cut open. The ulcer appeared on the rumen was evaluated using 6-ranked ulcer index according to the method by Narumi et al. [A. Narumi, et al., J. Takeda Res. Lab., 29, 85 (1970)]."}, "[11]": {"system": "ADP Induced Hemagglutination", "test": "Antithrombotic effect (I): ADP induced hemagglutination in plasma of dosed rats", "format": "in vivo, Wister strain male rats", "conditions": "ADP as coagulant; for Transmittance: mean ± S.E., control 62.9 ± 6.3", "protocol": "as §2"}, "[12]": {"conditions": "1 mg/kg i.v. one minute before circulation"}, "[13]": {"conditions": "10 mg/kg i.v. one minute before circulation"}, "[14]": {"conditions": "10 mg/kg via tail vein, blood taken 5 minutes later"}}, "note": "Square brackets hold non-standard residues; d marks the D form. Peptide text beside a SMILES is read from it. pGlu = O=C1CC[C@@H](C(=O)O)N1", "data": [{"compound": "CC(=O)Oc1ccccc1C(=O)O", "note": "[Aspirin]", "values": [{"measurement": "Thrombosis wet weight", "setting": "[1]; 100 mg/kg orally", "result": "22.3 ± 3.2", "unit": "mg"}, {"measurement": "inhibition at 100 mg/kg", "setting": "[1]; Rattus norvegicus, po, 20 min, 100 mg/kg orally, read-out: Inhibition rate (%)", "result": 41.5, "unit": "%"}]}, {"compound": "CN1[C@@H]2CC[C@H]1C[C@@H](OC(=O)C(CO)c1ccccc1)C2", "note": "(stereo partly drawn) [Atropine, atropine]", "values": [{"measurement": "ID50 (B) aspirin-induced ulcer", "setting": "[2]", "result": "0.52 mg/kg, i.v."}, {"measurement": "ID50 (A) restraint and water immersion stress ulcer", "setting": "[3]", "result": "0.4 mg/kg, i.v."}, {"measurement": "ID50 (E) cysteamine-induced duodenal ulcer", "setting": "[4]", "result": "0.35 mg/kg, i.v."}, {"measurement": "ID50 (C) histamine-induced ulcer", "setting": "[5]", "result": "0.35 mg/kg, i.v."}, {"measurement": "ID50 (D) cortisone-induced ulcer", "setting": "[6]", "result": "0.25 mg/kg, i.v."}]}, {"compound": "CN/C(=N/CCSCc1nc[nH]c1C)NC#N", "note": "[Cimetidine, cimetidine]", "values": [{"measurement": "ID50 (B) aspirin-induced ulcer", "setting": "[2]", "result": "39.0 mg/kg, i.v."}, {"measurement": "ID50 (A) restraint and water immersion stress ulcer", "setting": "[3]", "result": "37.0 mg/kg, i.v."}, {"measurement": "ID50 (E) cysteamine-induced duodenal ulcer", "setting": "[4]", "result": "26.0 mg/kg, i.v."}, {"measurement": "ID50 (C) histamine-induced ulcer", "setting": "[5]", "result": "17.0 mg/kg, i.v."}, {"measurement": "Ulcer coefficient (total surface area of ulcer lesion)", "setting": "[7]; 25 mg/kg i.v.", "result": "10.9 ± 1.9"}, {"measurement": "inhibition at 25 mg/kg", "setting": "[7]; Rattus norvegicus, 25 mg/kg i.v., read-out: Inhibition rate (%)", "result": 61.6, "unit": "%"}, {"measurement": "ID50 (D) cortisone-induced ulcer", "setting": "[6]", "result": "28.0 mg/kg, i.v."}]}, {"compound": "NCCCC[C@H](NC(=O)[C@H](Cc1c[nH]cn1)NC(=O)[C@H](CO)NC(=O)CN)C(=O)O", "note": "[Compound 25, Gly-Ser-His-Lys.CH3 COOH.H2 O] (H-GSHK-OH)", "values": [{"measurement": "ID50 (B) aspirin-induced ulcer", "setting": "[2]", "result": "5.0 mg/kg, i.v."}, {"measurement": "ID50 (A) restraint and water immersion stress ulcer", "setting": "[3]", "result": "4.2 mg/kg, i.v."}, {"measurement": "ID50 acetic acid-induced ulcer", "setting": "[8]; intravenous", "result": "1.0 mg/kg, i.v."}, {"measurement": "ID50 (E) cysteamine-induced duodenal ulcer", "setting": "[4]", "result": "5.0 mg/kg, i.v."}, {"measurement": "Transmittance", "setting": "[9]; 10.0 mg/kg via tail vein, 10 mg/kg", "result": "14.8 ± 4.9"}, {"measurement": "Inhibition rate (%)", "setting": "[9]; 10 mg/kg", "result": 71.8, "unit": "%"}, {"measurement": "ID50 (C) histamine-induced ulcer", "setting": "[5]", "result": "6.0 mg/kg, i.v."}, {"measurement": "Inhibition rate (%)", "setting": "[7]; 20 mg/kg i.v.", "result": 79.9, "unit": "%"}, {"measurement": "Ulcer coefficient (total surface area of ulcer lesion)", "setting": "[7]; 20 mg/kg i.v.", "result": "5.7 ± 2.6"}, {"measurement": "ID50 (D) cortisone-induced ulcer", "setting": "[6]", "result": "1.85 mg/kg, i.v."}, {"measurement": "Ulcer index (6-ranked)", "setting": "[10]", "result": "3.1 ± 0.5"}, {"measurement": "Inhibition rate (%)", "setting": "[1]; [12]", "result": 27.3, "unit": "%"}, {"measurement": "Thrombosis wet weight", "setting": "[1]; [12]", "result": "27.7 ± 4.0", "unit": "mg"}, {"measurement": "Inhibition rate (%)", "setting": "[1]; [13]", "result": 44.1, "unit": "%"}, {"measurement": "Thrombosis wet weight", "setting": "[1]; [13]", "result": "21.3 ± 3.3", "unit": "mg"}]}, {"compound": "NCCCC[C@H](NC(=O)[C@H](Cc1c[nH]cn1)NC(=O)[C@H](CO)NC(=O)[C@@H]1CCC(=O)N1)C(=O)O", "note": "[Compound 28, (pyr)Glu-Ser-His-Lys] ([pGlu]SHK-OH)", "values": [{"measurement": "Inhibition rate (%)", "setting": "[11]; [14]", "result": 57.9, "unit": "%"}, {"measurement": "Transmittance", "setting": "[11]; [14]", "result": "26.5 ± 7.2"}, {"measurement": "Inhibition rate (%)", "setting": "[7]; 20 mg/kg i.v.", "result": 57.0, "unit": "%"}, {"measurement": "Ulcer coefficient (total surface area of ulcer lesion)", "setting": "[7]; 20 mg/kg i.v.", "result": "12.2 ± 2.6"}]}, {"compound": "CC(C)=CCC/C(C)=C/CC/C(C)=C/CCC(=O)OC/C=C(\\C)CCC=C(C)C", "note": "[Gefarnate]", "values": [{"measurement": "ID50 acetic acid-induced ulcer", "setting": "[8]; intramuscular", "result": "250 mg/kg, i.m."}]}, {"compound": "Clc1ccccc1CN1CCc2sccc2C1", "note": "[Thichlopidine, ticlopidine]", "values": [{"measurement": "Transmittance", "setting": "[11]; 100 mg/kg orally", "result": "41.6 ± 10.4"}, {"measurement": "inhibition at 100 mg/kg", "setting": "[11]; Rattus norvegicus, po, 100 mg/kg orally, read-out: Inhibition Rate (%)", "result": 33.9, "unit": "%"}, {"measurement": "inhibition at 100 mg/kg", "setting": "[9]; Rattus norvegicus, po, 100 mg/kg orally, read-out: Inhibition rate (%)", "result": 34.1, "unit": "%"}, {"measurement": "Transmittance", "setting": "[9]; 100 mg/kg orally", "result": "34.6 ± 10.8"}]}, {"compound": "secretin", "values": [{"measurement": "ID50 acetic acid-induced ulcer", "setting": "[8]; intramuscular", "result": "> 100 U/kg, i.m."}]}]}
